Source: patent US10227310B2, “Ghrelin 0-acyl transferase inhibitors” (Eli Lilly and Company, priority 2015, dated 2019)

Legend:
[1] = target: human GOAT (Homo sapiens (Human), UniProt Q96T53); experiment: In vitro cell free human GOAT enzymatic assay; assay type: biochemical; details: cell free human GOAT enzyme, ELISA readout of acyl-ghrelin
Experimental: Human GOAT gene (Accession number: NM_001100916) is subcloned to pAN51 baculoviral expression vector. Baculovirus stock is prepared following the Bac-to-Bac Protocol provided by the vendor, Invitrogen, California, USA. Five mililiters of human GOAT baculoviral stock are added to 500 mL Sf9 cells in HyQ SFX-Insect™ media (HyClone catalog number SH30278.02) at the density of 1×10^6 cells per milliliter in a 2 L Erlenmeyer flask. The flask with human GOAT gene infected Sf9 cells is put on a plate shaker at 120 rpm at 28° C. for 48 h. After 48 h incubation, cells are centrifuged at 1,000×g for 10 min at 4° C. The cell pellets are collected and stored at −80° C. in a freezer until ready for further processing.
Preparation of Microsomal Membrane of GOAT Enzyme for the Enzymatic Assay:
One gram cell pellets are suspended in 9 mL chilled homogenization buffer (50 mM Tris-HCl, 250 mM sucrose, adjusted to pH 7.5, and sterile filtered through 0.2 μm Millipore filter). The cell suspension is transferred to a Dounce glass homogenizer. Cell pellets are homogenized with 40 strokes on ice. The homogenate is centrifuged at 3,000 rpm in a Beckman swing bucket rotor at 4° C. for 10 min to remove unbroken cells. The supernatant is collected and centrifuged at 40,000×g for 1 h at 4° C. The resulting membrane pellet is suspended in the homogenization buffer using a Dounce glass homogenizer and stored at −20° C. in the freezer for the assay. For long term storage of the human GOAT enzyme membrane preparation, the suspended membrane is stored in a −80° C. freezer.
Human GOAT Enzymatic Assay Protocol:
Prepare test compounds in DMSO to make up a 0.2 mM stock solution. Serially dilute the stock solution in DMSO for ten concentrations with final compound concentrations ranging from 10 μM to 0.5 nM in a 96-well round-bottom plate. Prepare enzyme and substrate solutions in assay buffer (0.02% TWEEN™-20 in 50 mM Tris, pH 7.5 containing 250 mM sucrose, 1 mg/mL BSA and 10 mM EDTA). Add diluted compound (1 μL) to each well of row A to N of a corresponding low protein binding 384 well plate. […] Incubate the mixture for 1 h at RT on a gently rotating oscillator. Add 4 M guanidine hydrochloride (20 μL) to all wells, mix, and incubate for 3 h to stop the reaction.
Aspirate the blocking buffer from ELISA plate and add blocking buffer (23 μL) to columns 1-24, rows A-N. Reserve rows O and P for the acylghrelin standard curve. Add the reaction mixture (2 μL) to the ELISA plates. […] Incubate the reaction mixture or biotin-labeled AG standard in the ELISA plate overnight at 4° C. The following day, wash the plate 3× with wash buffer (0.1% TWEEN™-20/PBS, 100 μL per well in each wash cycle). […] Wash the plate 3× with the wash buffer, similarly to the previous step. Add Protein G-HRP (25 μL) (Southern Biotech) diluted 3,000× in blocking buffer and incubate 1 h at RT. Wash the late 3× with wash buffer, as in the previous steps. Add TMB reagent (25 μL) (Kirkegaard & Perry Laboratories, Inc.) to each well and let develop for 20 min and stop with 1 M phosphoric acid (25 μL per well). Read plates at 450 nm using an ENVISION® Multilabel plate reader. AG levels are calculated versus a fitted standard curve and percent inhibition calculated.

[2] = target: GOAT enzyme (Mus musculus (Mouse), UniProt P0C7A3); experiment: In vivo dose dependent 3 day BID study for GOAT inhibitor (plasma AG, UAG by ELISA); set-up: species or system male C57BL/6 mice; details: mice; for decrease of plasma AG / increase of UAG / reduction in AG to total ghrelin ratio: 3 days; for decrease of plasma AG / increase of UAG: vs vehicle; for reduction in AG to total ghrelin ratio: vs vehicle-treated control animals; for AG (% of control) / AG/Total-ghrelin (% of vehicle control) / UAG (% of vehicle control): plasma
Experimental: Comparing the change in the ratio of AG to total ghrelin in the compound treated group and that of the vehicle treated group reflects the degree of GOAT enzyme inhibition in vivo, due to the dynamic processing of UAG to AG by the GOAT enzyme. In the in vivo pharmacodynamic studies herein, the levels of AG and UAG in plasma and stomach in the vehicle and compound treated groups are measured by ELISA specifically to these two analytes. The total ghrelin level of each sample is computed as the sum of AG and UAG by these ELISA measurements. The ratio of AG to total ghrelin is defined by the level of AG in each sample divided by the level of total ghrelin in the same sample. The levels of AG, UAG and ratio of AG to total ghrelin in the vehicle treated group is computed and set as 100%. The relative change of these parameters in the compound treated group is then computed to determine the effectiveness of the test compound.
Purchase male C57BL/6 mice from Harlan (Indianapolis, Ind.) at 9 weeks of age. House the mice individually in a temperature-controlled (24° C.) facility with a 12 h light/dark cycle (lights on 2200 h), and allow free access to a standard rodent chow (diet 2014, Harlan) and water. Typically, use the mice when they are 10-13 weeks of age at the time of the study. On day 0 of the experiment, randomize the mice into treatment groups (N=7/group) so each group has similar mean body weights. On day 1 and day 2, treat the animals with vehicle (1% hydroxyethylcellulose, 0.25% TWEEN™ 80, 0.05% antifoam) or test compound prepared in the vehicle as suspension at various dosages by oral gavage at 7 am and 7 pm. On day 3, fast the animals, move them into clean cages and dose with vehicle or the test compound again at 8 am by oral gavage. That same day at 1 pm, sacrifice the animals by decapitation to collect blood. For details of blood collection and plasma treatments see Blood collection and Extraction of Ghrelin from Plasma section below.
Collect approximately 600 μL blood into a pre-weighed EDTA tube containing 600 μL (defined as Vpreservative) freshly-prepared preservative (4 mM PEFABLOC® [4-(2-aminoethyl) benzenesulfonyl fluoride hydrochloride], 72 mM NaCl, 58 mM NaF, 0.032 N hydrochloric acid, pH 3.0) and mix immediately. Weigh the tube again and keep on ice. To accurately determine the exact blood volume of each sample using this blood collection procedure, the weight of the blood for each mouse is computed using the following equation: Weight of Blood=(Weight of the tube containing Blood+preservative)−(Weight of the tube containing preservative) Blood volume(Vblood)=(Weight of blood)/1.06
Within 15 minutes after the blood collection, samples are centrifuged at 5000 rpm at 4° C. for 8 min. Remove plasma (650 μL) to a 5 mL glass tube containing 1 N hydrochloric acid (65 μL), mix and keep on ice.
AG and UAG are extracted from plasma using SEP-PAK® C18 column to remove interference prior to performing the ELISA. The solid phase extraction of AG and UAG peptides by SEP-PAK® C18 columns can be performed on a vacuum manifold (Waters Corp) or using a peristaltic pump. The sample SEP-PAK® column extraction procedure is independently applied to the plasma sample obtained from each individual mouse. The general extraction protocol is described as follows.
All solutions used for the entire protocol of the SEP-PAK® column extraction should be at ice cold condition. Wet SEP-PAK®_columns (WAT054960, Waters Corp, Milford Mass.) with 99.9% ACN/0.1% TFA (1 mL of solution of 100 mL ACN/0.1 mL TFA). […] Once liquid is removed from the column, stop the pressure. Equilibrate the columns with 3% ACN/0.1% TFA (1 mL of 97 mL water, 3 mL ACN, 0.1 mL TFA). […] Dilute approximately 650 μL acidified plasma (defined as Vplasma added to column) to 1.4 mL ice cold 0.1% TFA. Load all diluted acidified plasma from the previous step onto the columns. […]

GOAT enzyme, sequence (P0C7A3 whole entry): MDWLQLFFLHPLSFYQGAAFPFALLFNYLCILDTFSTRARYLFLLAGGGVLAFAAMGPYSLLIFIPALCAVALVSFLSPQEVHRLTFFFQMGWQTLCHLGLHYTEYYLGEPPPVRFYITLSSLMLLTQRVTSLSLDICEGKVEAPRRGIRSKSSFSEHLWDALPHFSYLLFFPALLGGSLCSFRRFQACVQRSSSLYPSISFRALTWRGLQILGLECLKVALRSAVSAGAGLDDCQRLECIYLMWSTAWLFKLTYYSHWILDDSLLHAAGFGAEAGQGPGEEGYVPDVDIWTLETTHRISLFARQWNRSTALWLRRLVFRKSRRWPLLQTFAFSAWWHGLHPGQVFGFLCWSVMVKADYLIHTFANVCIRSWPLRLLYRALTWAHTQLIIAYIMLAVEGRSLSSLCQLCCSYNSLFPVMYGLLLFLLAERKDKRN
human GOAT, sequence (Q96T53 whole entry): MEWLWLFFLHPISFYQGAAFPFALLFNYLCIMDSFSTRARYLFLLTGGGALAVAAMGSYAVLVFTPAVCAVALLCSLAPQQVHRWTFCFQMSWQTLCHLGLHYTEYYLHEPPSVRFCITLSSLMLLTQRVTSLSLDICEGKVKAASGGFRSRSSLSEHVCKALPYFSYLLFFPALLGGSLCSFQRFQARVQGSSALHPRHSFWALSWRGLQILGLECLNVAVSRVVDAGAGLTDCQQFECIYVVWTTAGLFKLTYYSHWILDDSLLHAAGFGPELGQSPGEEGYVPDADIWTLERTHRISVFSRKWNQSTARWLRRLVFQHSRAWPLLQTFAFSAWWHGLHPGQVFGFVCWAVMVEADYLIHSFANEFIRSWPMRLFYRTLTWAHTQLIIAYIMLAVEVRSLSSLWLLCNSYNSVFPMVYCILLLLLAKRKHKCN

Cc1nc(Cl)nc(N)c1CCC1CCN(C(=O)[C@H](C)NC(=O)c2cn[nH]c2C)CC1 [Example 2, N-[(1S)-2-[4-[2-(4-Amino-2-chloro-6-methyl-pyrimidin-5-yl)ethyl]-1-piperidyl]-1-methyl-2-oxo-ethyl]-5-methyl-1H-pyrazole-4-carboxamide]
IC50 [1]: 54.4 nM

Cc1nc(N)c(CCC2CCN(C(=O)[C@H](C)NC(=O)c3ccnn3C)CC2)c(Cl)n1 [Example 66, N-[(1S)-2-[4-[2-(4-Amino-6-chloro-2-methyl-pyrimidin-5-yl)ethyl]-1-piperidyl]-1-methyl-2-oxo-ethyl]-2-methyl-pyrazole-3-carboxamide]
IC50 [1]: 68.9 ± 23.6 nM
decrease of plasma AG ([2]; 0.2 mg/kg): 34%
increase of UAG ([2]; 0.2 mg/kg): 2.13 fold
reduction in AG to total ghrelin ratio ([2]; 0.2 mg/kg): 50%
decrease of plasma AG ([2]; 0.6 mg/kg): 52%
increase of UAG ([2]; 0.6 mg/kg): 2.61 fold
reduction in AG to total ghrelin ratio ([2]; 0.6 mg/kg): 65%
decrease of plasma AG ([2]; 2 mg/kg): 72%
increase of UAG ([2]; 2 mg/kg): 2.92 fold
reduction in AG to total ghrelin ratio ([2]; 2 mg/kg): 79%
decrease of plasma AG ([2]; 6 mg/kg): 79%
increase of UAG ([2]; 6 mg/kg): 3.02 fold
reduction in AG to total ghrelin ratio ([2]; 6 mg/kg): 84%
decrease of plasma AG ([2]; 18 mg/kg): 81%
increase of UAG ([2]; 18 mg/kg): 2.79 fold
reduction in AG to total ghrelin ratio ([2]; 18 mg/kg): 86%
AG (% of control) ([2]; 0.2 mg/kg oral BID 3 days): 66 ± 12 (n = 7) % of control
AG/Total-ghrelin (% of vehicle control) ([2]; 0.2 mg/kg oral BID 3 days): 50 ± 3 (n = 7) % of vehicle control
UAG (% of vehicle control) ([2]; 0.2 mg/kg oral BID 3 days): 213 ± 27 (n = 7) % of vehicle control
AG (% of control) ([2]; 0.6 mg/kg oral BID 3 days): 48 ± 4 (n = 7) % of control
AG/Total-ghrelin (% of vehicle control) ([2]; 0.6 mg/kg oral BID 3 days): 35 ± 1 (n = 7) % of vehicle control
UAG (% of vehicle control) ([2]; 0.6 mg/kg oral BID 3 days): 261 ± 30 (n = 7) % of vehicle control
AG (% of control) ([2]; 2 mg/kg oral BID 3 days): 28 ± 3 (n = 14) % of control
AG/Total-ghrelin (% of vehicle control) ([2]; 2 mg/kg oral BID 3 days): 21 ± 1 (n = 14) % of vehicle control
UAG (% of vehicle control) ([2]; 2 mg/kg oral BID 3 days): 292 ± 43 (n = 14) % of vehicle control
AG (% of control) ([2]; 6 mg/kg oral BID 3 days): 21 ± 3 (n = 7) % of control
AG/Total-ghrelin (% of vehicle control) ([2]; 6 mg/kg oral BID 3 days): 16 ± 1 (n = 7) % of vehicle control
UAG (% of vehicle control) ([2]; 6 mg/kg oral BID 3 days): 302 ± 48 (n = 7) % of vehicle control
AG (% of control) ([2]; 18 mg/kg oral BID 3 days): 19 ± 6 (n = 7) % of control
AG/Total-ghrelin (% of vehicle control) ([2]; 18 mg/kg oral BID 3 days): 14 ± 2 (n = 7) % of vehicle control
UAG (% of vehicle control) ([2]; 18 mg/kg oral BID 3 days): 279 ± 36 (n = 7) % of vehicle control

Cc1nc(N)c(CCC2CCCN(C(=O)[C@H](C)NC(=O)c3ccncc3)CC2)c(Cl)n1 (stereo partly drawn) [Example 37, N-[(1S)-2-[(4R,S)-4-[2-(4-Amino-6-chloro-2-methyl-pyrimidin-5-yl)ethyl]azepan-1-yl]-1-methyl-2-oxo-ethyl] pyridine-4-carboxamide]
IC50 [1]: 574 nM

COC(=O)N[C@@H](C)C(=O)N1CCC(CCc2c(N)nc(C)nc2Cl)CC1 [Example 71, Methyl N-[(1S)-2-[4-[2-(4-amino-6-chloro-2-methyl-pyrimidin-5-yl)ethyl]-1-piperidyl]-1-methyl-2-oxo-ethyl]carbamate]
IC50 [1]: 149 ± 46 nM
decrease of plasma AG ([2]; 0.3 mg/kg): 13%
increase of UAG ([2]; 0.3 mg/kg): 2.87 fold
reduction in AG to total ghrelin ratio ([2]; 0.3 mg/kg): 59%
decrease of plasma AG ([2]; 1 mg/kg): 37%
increase of UAG ([2]; 1 mg/kg): 3.44 fold
reduction in AG to total ghrelin ratio ([2]; 1 mg/kg): 73%
decrease of plasma AG ([2]; 3 mg/kg): 66%
increase of UAG ([2]; 3 mg/kg): 2.90 fold
reduction in AG to total ghrelin ratio ([2]; 3 mg/kg): 82%
AG (% of control) ([2]; 0.3 mg/kg oral BID 3 days): 87 ± 18 (n = 7) % of control
AG/Total-ghrelin (% of vehicle control) ([2]; 0.3 mg/kg oral BID 3 days): 41 ± 3 (n = 7) % of vehicle control
UAG (% of vehicle control) ([2]; 0.3 mg/kg oral BID 3 days): 287 ± 43 (n = 7) % of vehicle control
AG (% of control) ([2]; 1 mg/kg oral BID 3 days): 63 ± 15 (n = 7) % of control
AG/Total-ghrelin (% of vehicle control) ([2]; 1 mg/kg oral BID 3 days): 27 ± 2 (n = 7) % of vehicle control
UAG (% of vehicle control) ([2]; 1 mg/kg oral BID 3 days): 344 ± 63 (n = 7) % of vehicle control
AG (% of control) ([2]; 3 mg/kg oral BID 3 days): 34 ± 5 (n = 7) % of control
AG/Total-ghrelin (% of vehicle control) ([2]; 3 mg/kg oral BID 3 days): 18 ± 1 (n = 7) % of vehicle control
UAG (% of vehicle control) ([2]; 3 mg/kg oral BID 3 days): 290 ± 30 (n = 7) % of vehicle control

Cc1nc(N)c(CCC2CCN(C(=O)[C@H](C)NC(=O)c3cnc(C)s3)CC2)c(Cl)n1 [Example 42, N-[(1S)-2-[4-[2-(4-Amino-6-chloro-2-methyl-pyrimidin-5-yl)ethyl]-1-piperidyl]-1-methyl-2-oxo-ethyl]-2-methyl-thiazole-5-carboxamide]
IC50 [1]: 96.4 ± 28.3 nM
decrease of plasma AG ([2]; 0.3 mg/kg): 51%
increase of UAG ([2]; 0.3 mg/kg): 1.61 fold
reduction in AG to total ghrelin ratio ([2]; 0.3 mg/kg): 61%
decrease of plasma AG ([2]; 1 mg/kg): 57%
increase of UAG ([2]; 1 mg/kg): 2.04 fold
reduction in AG to total ghrelin ratio ([2]; 1 mg/kg): 73%
decrease of plasma AG ([2]; 3 mg/kg): 70%
increase of UAG ([2]; 3 mg/kg): 2.00 fold
reduction in AG to total ghrelin ratio ([2]; 3 mg/kg): 81%
AG (% of control) ([2]; 0.3 mg/kg oral BID 3 days): 49 ± 7 (n = 7) % of control
AG/Total-ghrelin (% of vehicle control) ([2]; 0.3 mg/kg oral BID 3 days): 39 ± 2 (n = 7) % of vehicle control
UAG (% of vehicle control) ([2]; 0.3 mg/kg oral BID 3 days): 161 ± 24 (n = 7) % of vehicle control
AG (% of control) ([2]; 1 mg/kg oral BID 3 days): 43 ± 6 (n = 7) % of control
AG/Total-ghrelin (% of vehicle control) ([2]; 1 mg/kg oral BID 3 days): 27 ± 1 (n = 7) % of vehicle control
UAG (% of vehicle control) ([2]; 1 mg/kg oral BID 3 days): 204 ± 24 (n = 7) % of vehicle control
AG (% of control) ([2]; 3 mg/kg oral BID 3 days): 30 ± 4 (n = 7) % of control
AG/Total-ghrelin (% of vehicle control) ([2]; 3 mg/kg oral BID 3 days): 19 ± 1 (n = 7) % of vehicle control
UAG (% of vehicle control) ([2]; 3 mg/kg oral BID 3 days): 200 ± 20 (n = 7) % of vehicle control
